Several values for one entry are separate records, joined by “and”; a condition that tells them apart may be missing. Identical values can stand only once. Like-named read-outs stand apart in the source and are kept apart here.
Experiments:
[1] = system: T1, Plasmodium falciparum Dd2-attB (parental line), asexual blood stages; assay: microbe, parasite or virus in culture; set-up: replicate k of 3 (each line is one of three independent assays; the three lines of one compound and parasite line follow each other); conditions: n = 1; for Individual replicates / Log AC50 (M): 72 h; for AC50: Plasmodium falciparum, DD2, 72 h, read-out: Individual replicates / Log AC50 (converted)
T1 construct: Dd2-attB, the isogenic parental line
In short: (§1)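 Both lines were tested side by side with selected compounds, repeated in three independent assays. Differences between parental and ScDHODH-expressing parasites were then assessed with a two-sided Student's t-test.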

[2] = system: Plasmodium falciparum Dd2 asexual blood stage parasites; assay: microbe, parasite or virus in culture; set-up: species or system Plasmodium falciparum Dd2 in human erythrocytes; single determination (one 11-point concentration-response curve); conditions: Plasmodium falciparum, DD2, Erythrocyte, 72 h
[3] = system: T2, Plasmodium falciparum Dd2-attB-ScDHODH (transgenic line expressing yeast DHODH), asexual blood stages; assay: organism not typed; set-up: replicate k of 3 (each line is one of three independent assays; the three lines of one compound and parasite line follow each other); conditions: 72 h, n = 1; for AC50: read-out: Individual replicates / Log AC50 (converted)
T2 construct: Dd2-attB-ScDHODH, the transgenic line that expresses yeast DHODH
In short: as §1

[4] = system: luciferase-expressing P. berghei liver stage parasites in HepG2 cells; assay: Inhibition of liver-stage development assay (ILSDA), Method 2 (WRAIR, 96-well); type: cell-based, Plasmodium berghei; conditions: for Max Resp (signal direction of the dose response): Decrease = decreasing P. berghei viability with dose, Increase = increasing signal, Inactive = no dose response
[5] = system: P. berghei-ANKA-GFP-LucCON liver stage parasites in HepG2-A16-CD81EGFP cells; assay: P. berghei liver stage Pb-Luc assay, Method 1 (UCSD, 1536-well); as to Pb-Luc signal, 1 uM, repeat 1: reference of the scale not given here; as to Pb-Luc signal, 1 uM, repeat 2: reference of the scale not given here; as to Pb-Luc signal, 1 uM, repeat 3: reference of the scale not given here; as to Pb-Luc signal, 3 uM, repeat 1: reference of the scale not given here; as to Pb-Luc signal, 3 uM, repeat 2: reference of the scale not given here; as to Pb-Luc signal, 3 uM, repeat 3: reference of the scale not given here; type: cell-based, Plasmodium berghei; conditions: for Max Resp (signal direction of the dose response) / AC50 / Log AC50 (M): Method 1; for Max Resp (signal direction of the dose response): Decrease = decreasing P. berghei viability with dose, Increase = increasing signal, Inactive = no dose response; for activity at 1 µM / activity at 3 µM: 48 h, average of 2 wells, 1536-well plate; for activity at 1 µM: nominal 1 uM (10 mM stock), […] for 15 mM, 1.2 uM for 12 mM, 2 uM for 20 mM stock; for activity at 3 µM: nominal 3 uM (10 mM stock), 4.5 uM for 15 mM, 3.6 uM for 12 mM, 6 uM for 20 mM stock
[6] = in vitro; conditions: human
[7] = system: HepG2-A16-CD81EGFP cells
[8] = Method 2, Hill fit, 50% of maximum activity response, read-out: AC50
[9] = Method 2, log10 of molar AC50 from Hill fit
[10] = Hill fit, 50% of maximum activity response, read-out: AC50
[11] = log10 of molar AC50 from Hill fit
[12] = Plasmodium berghei, Hill fit, 50% of maximum activity response, read-out: AC50
[13] = Plasmodium berghei, log10 of molar AC50 from Hill fit, read-out: Log AC50 (converted)
[14] = Plasmodium berghei, repeat 1, read-out: Pb-Luc signal, 1 uM, repeat 1
[15] = Plasmodium berghei, repeat 2, read-out: Pb-Luc signal, 1 uM, repeat 2
[16] = Plasmodium berghei, repeat 3, read-out: Pb-Luc signal, 1 uM, repeat 3
[17] = Plasmodium berghei, repeat 1, read-out: Pb-Luc signal, 3 uM, repeat 1
[18] = Plasmodium berghei, repeat 2, read-out: Pb-Luc signal, 3 uM, repeat 2
[19] = Plasmodium berghei, repeat 3, read-out: Pb-Luc signal, 3 uM, repeat 3
[20] = HepG2-A16-CD81EGFP cells, uninfected
[21] = nominal 1 uM (10 mM stock), […] for 15 mM, 1.2 uM for 12 mM, 2 uM for 20 mM stock, average of 2 wells, repeat 2
[22] = nominal 3 uM (10 mM stock), 4.5 uM for 15 mM, 3.6 uM for 12 mM, 6 uM for 20 mM stock, average of 2 wells, repeat 2
[23] = P. berghei liver stage, Method 2, dose response
[24] = Plasmodium berghei, HepG2, P. berghei liver stage, Method 2, dose response, read-out: AC50
[25] = Plasmodium berghei, HepG2, P. berghei liver stage, Method 2, dose response, read-out: Log AC50 (converted)

Row | SMILES | AC50 ([2]; read-out: AC50) | Max Resp (signal direction of the dose response) ([4]; Method 2) | Max Resp (signal direction of the dose response) [5] | AC50 [5, 12] | AC50 [5, 13] | activity at 1 µM [5, 14] | activity at 1 µM [5, 15] | activity at 1 µM [5, 16] | activity at 3 µM [5, 17] | activity at 3 µM [5, 18] | activity at 3 µM [5, 19] | viability at 48 h, 1 µM [6, 20] | viability at 48 h, 3 µM [6, 20] | HepG2 viability signal, 1 uM, repeat 2 [7, 21] | HepG2 viability signal, 3 uM, repeat 2 [7, 22] | Activity direction (Decrease / Inactive) [4, 23] | further results
1 | Cc1ccc(NC2=C(c3ccc(C(F)(F)F)cc3)C(=O)c3ccccc32)cc1F [NCGC00107266-01] | 1880 nM | Decrease | Decrease | 1260 nM | 1260 nM |  |  |  |  |  |  |  |  |  |  |  | Individual replicates / Log AC50 (M) [1]: -6.2486 Log AC50 (M) and -6.2986 Log AC50 (M); AC50 [1]: 399 nM; Individual replicates / Log AC50 (M) [3]: -5.4986 Log AC50 (M) and -5.1986 Log AC50 (M) and -5.3986 Log AC50 (M); AC50 [4, 8]: 79 nM; Log AC50 (M) [4, 9]: -7.100 M; AC50 [5, 10]: 1410 nM; Log AC50 (M) [5, 11]: -5.850 M
2 | Cc1ccc(NC2=C(c3ccc(C(F)(F)F)cc3)C(=O)c3ccccc32)cc1C [NCGC00107300-01] | 2110 nM | Decrease | Decrease | 447 nM | 447 nM |  |  |  |  |  |  |  |  |  |  |  | Individual replicates / Log AC50 (M) [1]: -5.7486 Log AC50 (M) and -5.5986 Log AC50 (M); AC50 [1]: 1590 nM; Individual replicates / Log AC50 (M) [3]: -5.4986 Log AC50 (M) and -5.2486 Log AC50 (M); AC50 [3]: 3990 nM; AC50 [4, 8]: 398 nM; Log AC50 (M) [4, 9]: -6.400 M; AC50 [5, 10]: 794 nM; Log AC50 (M) [5, 11]: -6.100 M
3 | CCC(CC)c1cc([C@H]2CN3CC[C@H]2C[C@@H]3CN[S+](=O)([O-])c2cccs2)nc(-c2ccncc2)n1 [NCGC00396883-01] | 2370 nM | Decrease | Decrease | 501 nM | 501 nM | 64% | 69% | 109% | 37.8% | 32.5% | 35.3% |  |  |  |  |  | AC50 ([4]; Plasmodium berghei, HepG2, Method 2, Hill fit, 50% of maximum activity response, read-out: AC50): 631 nM; AC50 ([4]; Plasmodium berghei, HepG2, Method 2, log10 of molar AC50 from Hill fit, read-out: Log AC50 (converted)): 631 nM; viability at 48 h, 1 µM [6]: 99.7%; viability at 48 h, 3 µM [6]: 102%; HepG2 viability signal, 1 uM, repeat 2 ([7]; human, 48 h, 1 µM): 98.83%; HepG2 viability signal, 3 uM, repeat 2 ([7]; human, 48 h, 3 µM): 99.98%; AC50 [5, 10]: 708 nM; Log AC50 (M) [5, 11]: -6.150 M
4 | COc1ccc(-c2ccc3ncc(Nc4ccc(C(N)=O)cc4)n3n2)cc1OC [NCGC00412552-01] | 2430 nM | Inactive | Inactive |  |  | 38.8% | 64.3% | 74.5% | 2.42% | 48.9% | 27.1% | 100% | 105% | 102.54% | 100.89% |  | 
5 | COc1ccc(Nc2cnc3ccc(-c4ccc(OC)c(OC)c4)nn23)cc1 [NCGC00412624-01] | 1720 nM |  | Decrease | 1410 nM | 1410 nM | 3.08% | 5.39% | 3.47% | -0.46% | -0.86% | -0.14% | 101% | 109% | 100.79% | 112.23% | Inactive | 
6 | COc1cc2c(cc1Oc1cccc(N(C)C)c1)NC(=O)C21CCN(c2cnccn2)CC1 [NCGC00416778-01] | 1500 nM |  | Inactive |  |  | 86.6% | 95.1% | 107% | 35% | 40% | 53.9% |  |  |  |  | Decrease | AC50 [4, 24]: 1000 nM; AC50 [4, 25]: 1000 nM; viability at 48 h, 1 µM [6]: 101%; viability at 48 h, 3 µM [6]: 89.7%; HepG2 viability signal, 1 uM, repeat 2 ([7]; human, 48 h, 1 µM): 94.98%; HepG2 viability signal, 3 uM, repeat 2 ([7]; human, 48 h, 3 µM): 87.34%
7 | CCC(CC)c1cc([C@H]2CN3CC[C@H]2C[C@@H]3CNC(=O)COc2ccccc2)nc(-c2ccncc2)n1 [NCGC00420983-01] | 1500 nM |  | Decrease |  |  | 55.4% | 47% | 38% | 33.3% | 38.2% | 41% | 102% | 101% | 97.05% |  | Inactive | viability at 48 h, 3 µM [6]: 101%
8 | Cc1cc(C)cc(C(=O)Nc2ccc3c(N4CCCC4)ncnc3c2)c1 [NCGC00425487-01] | 2370 nM |  |  | 1000 nM | 1000 nM | 67.5% | 99.6% | 77.5% | 25.9% | 34.2% | 15.9% | 89% | 27.1% | 92.65% | 36.60% | Decrease | AC50 [4, 24]: 15800 nM; AC50 [4, 25]: 15800 nM
9 | O=C(Nc1ccc2c(N3CCOCC3)ncnc2c1)c1cccc(Br)c1 [NCGC00425561-01] | 4220 nM |  |  | 1410 nM | 1410 nM | 70.5% | 72.5% | 53.9% | 30.4% | 40.5% | 12.4% | 97.9% | 39.6% | 93.24% | 58.93% |  | Activity direction (Decrease / Inactive) [4]: Decrease; AC50 ([4]; Plasmodium berghei, HepG2): 31600 nM; AC50 ([4]; Plasmodium berghei, HepG2, read-out: Log AC50 (converted)): 31600 nM
10 | Cc1ccccc1[S+](=O)([O-])N1CCCC(CCC(=O)NCCN(C)C2CCCCC2)C1 (centres unmarked) [NCGC00425745-01] |  |  |  | 1780 nM | 1780 nM | 72% | 61% | 64.9% | 42% | 57.8% | 54.8% | 112% | 109% |  |  | Decrease | AC50 [2]: 8410 nM; AC50 [4, 24]: 562 nM; AC50 [4, 25]: 562 nM; HepG2 viability signal, 1 uM, repeat 2 [7]: 108.18%; HepG2 viability signal, 3 uM, repeat 2 [7]: 103.93%
11 | CCCN1C(CC(C)C)=N[S+](=O)([O-])c2cc(NC(=O)c3ccccc3Cl)ccc21 [NCGC00473218-01] |  |  |  |  |  |  |  |  |  |  |  |  |  |  |  | Inactive | Individual replicates / Log AC50 (M) [1]: -5.5486 Log AC50 (M) and -5.3986 Log AC50 (M) and -5.1986 Log AC50 (M); Individual replicates / Log AC50 (M) [3]: -5.0486 Log AC50 (M); AC50 [3]: 7970 nM

From publication PMC7822874, “Chemoprotective antimalarials identified through quantitative high-throughput screening of Plasmodium blood and liver stage parasites” (Scientific Reports, 2021)
